Test results taken from patent publication US20090137572A1, “2-substituted-4-heteroaryl-pyrimidines useful for the treatment of proliferative disorders” (priority 2004, published 2009).

Tests used:
Assay type in all cases: biochemical
[1] = molecular target: T1, Flt3 (FMS-like tyrosine kinase-3) (Homo sapiens, UniProt P36888); test: Kinase assay (radioactive phosphate incorporation), Flt3; conditions: pIC50 is -log(IC50, M), read-out: Kinase Inhibition pIC50 Flt3 (converted)
T1 sequence (P36888 27-993): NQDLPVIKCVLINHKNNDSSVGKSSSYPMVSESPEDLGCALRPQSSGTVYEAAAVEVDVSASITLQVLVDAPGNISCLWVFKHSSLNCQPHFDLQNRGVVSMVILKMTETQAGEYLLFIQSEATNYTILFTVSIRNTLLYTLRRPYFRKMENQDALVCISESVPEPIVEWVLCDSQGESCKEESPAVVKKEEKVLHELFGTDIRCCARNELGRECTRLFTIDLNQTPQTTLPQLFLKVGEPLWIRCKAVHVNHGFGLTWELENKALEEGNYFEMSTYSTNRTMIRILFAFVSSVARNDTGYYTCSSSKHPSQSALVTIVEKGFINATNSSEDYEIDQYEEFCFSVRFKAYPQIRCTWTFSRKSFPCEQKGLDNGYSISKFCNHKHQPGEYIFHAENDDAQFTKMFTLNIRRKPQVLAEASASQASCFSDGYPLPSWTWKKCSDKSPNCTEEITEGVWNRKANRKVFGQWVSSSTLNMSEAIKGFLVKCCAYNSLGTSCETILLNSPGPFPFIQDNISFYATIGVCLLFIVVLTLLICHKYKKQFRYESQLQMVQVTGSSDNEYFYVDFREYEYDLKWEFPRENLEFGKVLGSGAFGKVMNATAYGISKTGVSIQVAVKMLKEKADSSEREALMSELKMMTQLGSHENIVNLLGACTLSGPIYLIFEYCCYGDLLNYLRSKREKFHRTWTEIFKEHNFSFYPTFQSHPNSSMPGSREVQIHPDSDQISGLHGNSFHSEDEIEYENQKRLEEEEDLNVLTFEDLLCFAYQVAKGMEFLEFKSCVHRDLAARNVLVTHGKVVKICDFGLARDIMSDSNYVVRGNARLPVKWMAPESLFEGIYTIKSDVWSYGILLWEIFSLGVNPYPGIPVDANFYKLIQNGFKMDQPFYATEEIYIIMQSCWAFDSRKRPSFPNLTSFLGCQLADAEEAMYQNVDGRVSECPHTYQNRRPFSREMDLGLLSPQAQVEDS
Summary of the method: (§1)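 Radiometric filter-binding format: recombinant kinase + substrate, pH 7.4 MOPS buffer with EGTA, DTT, vanadate; 100 μM ATP/[γ-32P]-ATP, 15 mM MgCl2; 30° C; stopped on ice, P81 or GF/C filtration, scintillation read.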

CDK4-cyclin D1 = CDK4-cyclin D1 (Homo sapiens, UniProt P11802); test: Kinase assay (radioactive phosphate incorporation), CDK4-cyclin D1; conditions: read-out: Kinase Inhibition pIC50 CDK4-cyclin D1 (converted)
Summary of the method: as §1

CDK2-cycline E = CDK2-cycline E (Homo sapiens, UniProt P24941); test: Kinase assay (radioactive phosphate incorporation), CDK2-cyclin E; conditions: read-out: Kinase Inhibition pIC50 CDK2-cycline E (converted)
Summary of the method: as §1

CDK7/cyclin H = CDK7/cyclin H (Homo sapiens, UniProt P50613); test: CDK 7 assay (CTD peptide substrate); conditions: read-out: Kinase Inhibition pIC50 CDK7-cyclin H (converted)
Summary of the method: (§2)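 Test compounds were incubated with recombinant human kinase/cyclin complex and CTD peptide substrate for 45 min at 30° C (pH 7.2, 100 μM ATP spiked with 32PγATP, 15 mM MgCl2). Reactions were stopped on ice, avidin was added, and phosphorylated peptide was captured on P81 filters and counted by scintillation.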

CDK2-cyclin A = CDK2-cyclin A (Homo sapiens, UniProt P24941); test: Kinase assay (radioactive phosphate incorporation), CDK2-cyclin A; conditions: read-out: Kinase Inhibition pIC50 CDK2-cyclin A (converted)
Summary of the method: as §1

Aurora A kinase = molecular target: T2, Aurora A kinase (Homo sapiens, UniProt O14965); test: Aurora-A (human) kinase assay (Kemptide substrate); conditions: pIC50 is -log(IC50, M); 15 μM ATP; read-out: Kinase Inhibition pIC50 Aurora A kinase (converted)
T2 construct: purchased
T2 sequence (O14965 1-403): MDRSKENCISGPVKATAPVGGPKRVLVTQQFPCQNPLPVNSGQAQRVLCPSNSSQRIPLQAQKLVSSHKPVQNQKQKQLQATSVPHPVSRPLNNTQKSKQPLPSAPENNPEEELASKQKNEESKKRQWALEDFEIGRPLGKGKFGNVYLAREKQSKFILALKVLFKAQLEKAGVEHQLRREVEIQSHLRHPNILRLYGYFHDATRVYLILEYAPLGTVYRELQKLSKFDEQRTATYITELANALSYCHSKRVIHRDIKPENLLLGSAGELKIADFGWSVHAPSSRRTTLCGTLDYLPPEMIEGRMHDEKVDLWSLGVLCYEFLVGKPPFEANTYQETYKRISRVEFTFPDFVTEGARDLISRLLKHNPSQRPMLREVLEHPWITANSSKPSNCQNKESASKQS
Summary of the method: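 Radiometric filter-binding assay: commercial aurora-A kinase (5-10 ng) with 200 μM Kemptide in MOPS/EDTA pH 7.0, started with 10 mM Mg acetate and 15 μM ATP plus [γ-33P]-ATP. Incubated 40 min at room temperature, stopped with phosphoric acid, incorporated 33P counted by scintillation.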

GSK3b = GSK3b (Homo sapiens, UniProt P49841); test: Kinase assay (radioactive phosphate incorporation), GSK-3b; conditions: read-out: Kinase Inhibition pIC50 GSK-3b (converted)
Summary of the method: as §1

CDK1-cyclin B = CDK1-cyclin B (Homo sapiens, UniProt P06493); test: Kinase assay (radioactive phosphate incorporation), CDK1-cyclin B; conditions: read-out: Kinase Inhibition pIC50 CDK1-cyclin B (converted)
Summary of the method: as §1

CDK9/cyclin T1 = CDK9/cyclin T1 (Homo sapiens, UniProt P50750); test: CDK 9 assay (CTD peptide substrate); conditions: read-out: Kinase Inhibition pIC50 CDK9-cyclin T1 (converted)
Summary of the method: as §2

CDK4-cyclin D1, sequence (P11802 whole entry): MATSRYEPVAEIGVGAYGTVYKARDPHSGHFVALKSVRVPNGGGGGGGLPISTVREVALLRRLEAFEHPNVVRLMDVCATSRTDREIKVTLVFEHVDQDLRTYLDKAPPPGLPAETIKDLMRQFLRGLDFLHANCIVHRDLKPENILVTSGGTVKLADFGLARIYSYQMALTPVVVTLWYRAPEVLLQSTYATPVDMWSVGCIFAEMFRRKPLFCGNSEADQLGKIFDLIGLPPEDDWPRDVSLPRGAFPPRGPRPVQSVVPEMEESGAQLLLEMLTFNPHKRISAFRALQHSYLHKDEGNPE
CDK4-cyclin D1, sequence (P24385 whole entry partner): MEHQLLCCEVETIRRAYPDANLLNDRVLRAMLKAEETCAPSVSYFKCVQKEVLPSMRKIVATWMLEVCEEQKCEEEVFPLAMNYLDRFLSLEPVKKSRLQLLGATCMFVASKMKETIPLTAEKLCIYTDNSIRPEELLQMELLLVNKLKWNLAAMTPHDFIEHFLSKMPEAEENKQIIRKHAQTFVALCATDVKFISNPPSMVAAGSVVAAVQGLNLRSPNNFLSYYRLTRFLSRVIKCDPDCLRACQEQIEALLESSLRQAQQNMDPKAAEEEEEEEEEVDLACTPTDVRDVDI
CDK1-cyclin B, sequence (P06493 whole entry): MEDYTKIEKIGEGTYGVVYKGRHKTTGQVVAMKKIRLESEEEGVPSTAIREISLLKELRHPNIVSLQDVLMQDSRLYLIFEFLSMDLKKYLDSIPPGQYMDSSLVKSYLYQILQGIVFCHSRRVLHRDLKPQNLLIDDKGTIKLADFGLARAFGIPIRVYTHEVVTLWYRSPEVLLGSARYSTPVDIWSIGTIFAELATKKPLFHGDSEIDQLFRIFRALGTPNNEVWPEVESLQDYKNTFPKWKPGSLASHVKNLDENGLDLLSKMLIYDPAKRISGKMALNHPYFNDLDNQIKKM
CDK1-cyclin B, sequence (P14635 whole entry partner): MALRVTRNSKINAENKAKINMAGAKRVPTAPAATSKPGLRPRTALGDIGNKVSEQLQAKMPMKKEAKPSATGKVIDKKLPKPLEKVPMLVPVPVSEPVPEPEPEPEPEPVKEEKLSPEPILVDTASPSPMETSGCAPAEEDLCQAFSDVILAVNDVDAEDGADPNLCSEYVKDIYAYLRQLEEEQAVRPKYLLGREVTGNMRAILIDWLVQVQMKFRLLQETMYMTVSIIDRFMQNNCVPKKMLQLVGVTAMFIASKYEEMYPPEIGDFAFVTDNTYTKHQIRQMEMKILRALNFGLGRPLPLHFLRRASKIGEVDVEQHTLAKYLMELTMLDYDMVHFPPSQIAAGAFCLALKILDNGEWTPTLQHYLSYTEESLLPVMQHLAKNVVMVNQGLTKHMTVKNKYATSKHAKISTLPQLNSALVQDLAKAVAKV
GSK3b, sequence (P49841 whole entry, species assumed): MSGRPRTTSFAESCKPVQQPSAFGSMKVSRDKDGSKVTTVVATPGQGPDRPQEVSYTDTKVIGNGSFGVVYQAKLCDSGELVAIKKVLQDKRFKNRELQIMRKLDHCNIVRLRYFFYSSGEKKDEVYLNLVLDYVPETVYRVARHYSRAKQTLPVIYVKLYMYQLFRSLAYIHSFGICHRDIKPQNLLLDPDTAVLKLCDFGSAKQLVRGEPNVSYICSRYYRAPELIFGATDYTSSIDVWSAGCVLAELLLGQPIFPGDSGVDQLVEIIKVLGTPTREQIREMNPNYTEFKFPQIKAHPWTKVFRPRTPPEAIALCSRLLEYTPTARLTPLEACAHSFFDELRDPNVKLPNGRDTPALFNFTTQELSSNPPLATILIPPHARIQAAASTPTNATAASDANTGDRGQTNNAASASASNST
CDK9/cyclin T1, sequence (P50750 whole entry): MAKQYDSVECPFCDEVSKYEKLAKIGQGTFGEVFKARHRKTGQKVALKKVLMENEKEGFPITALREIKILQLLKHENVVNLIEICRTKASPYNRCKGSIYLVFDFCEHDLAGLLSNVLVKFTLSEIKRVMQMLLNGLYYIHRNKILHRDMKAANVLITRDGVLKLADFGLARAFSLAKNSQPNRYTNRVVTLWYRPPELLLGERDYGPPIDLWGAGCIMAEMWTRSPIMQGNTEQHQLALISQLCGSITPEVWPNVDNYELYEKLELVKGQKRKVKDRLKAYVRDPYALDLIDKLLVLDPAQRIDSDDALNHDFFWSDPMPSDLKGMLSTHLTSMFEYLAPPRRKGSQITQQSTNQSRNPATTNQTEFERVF
CDK9/cyclin T1, sequence (O60563 whole entry partner): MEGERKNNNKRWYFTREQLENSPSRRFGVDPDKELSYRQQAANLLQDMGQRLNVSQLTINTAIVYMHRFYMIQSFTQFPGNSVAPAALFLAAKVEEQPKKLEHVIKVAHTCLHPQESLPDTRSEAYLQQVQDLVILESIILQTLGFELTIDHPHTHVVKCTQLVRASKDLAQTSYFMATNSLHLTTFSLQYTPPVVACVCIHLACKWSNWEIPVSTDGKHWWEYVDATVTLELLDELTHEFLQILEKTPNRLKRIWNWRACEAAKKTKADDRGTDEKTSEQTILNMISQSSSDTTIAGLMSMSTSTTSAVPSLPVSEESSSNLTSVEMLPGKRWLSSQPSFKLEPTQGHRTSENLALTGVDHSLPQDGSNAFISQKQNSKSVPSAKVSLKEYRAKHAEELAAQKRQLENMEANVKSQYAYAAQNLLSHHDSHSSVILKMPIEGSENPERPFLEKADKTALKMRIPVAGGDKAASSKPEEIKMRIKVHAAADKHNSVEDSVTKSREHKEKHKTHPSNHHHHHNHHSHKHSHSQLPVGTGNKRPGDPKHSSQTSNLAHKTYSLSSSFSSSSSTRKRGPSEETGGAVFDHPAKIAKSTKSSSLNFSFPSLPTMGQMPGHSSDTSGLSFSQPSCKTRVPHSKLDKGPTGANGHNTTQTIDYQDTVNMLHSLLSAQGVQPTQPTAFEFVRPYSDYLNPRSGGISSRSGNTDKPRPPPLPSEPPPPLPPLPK
CDK7/cyclin H, sequence (P50613 whole entry): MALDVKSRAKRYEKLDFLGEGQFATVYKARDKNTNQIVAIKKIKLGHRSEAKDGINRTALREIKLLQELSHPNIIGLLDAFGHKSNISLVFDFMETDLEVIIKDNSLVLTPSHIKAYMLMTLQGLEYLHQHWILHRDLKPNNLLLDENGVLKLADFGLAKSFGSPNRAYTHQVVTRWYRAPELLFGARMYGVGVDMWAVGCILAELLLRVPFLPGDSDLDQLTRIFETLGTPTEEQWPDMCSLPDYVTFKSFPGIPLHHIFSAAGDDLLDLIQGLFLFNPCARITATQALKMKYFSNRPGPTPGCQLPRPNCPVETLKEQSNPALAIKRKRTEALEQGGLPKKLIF
CDK7/cyclin H, sequence (P51946 whole entry partner): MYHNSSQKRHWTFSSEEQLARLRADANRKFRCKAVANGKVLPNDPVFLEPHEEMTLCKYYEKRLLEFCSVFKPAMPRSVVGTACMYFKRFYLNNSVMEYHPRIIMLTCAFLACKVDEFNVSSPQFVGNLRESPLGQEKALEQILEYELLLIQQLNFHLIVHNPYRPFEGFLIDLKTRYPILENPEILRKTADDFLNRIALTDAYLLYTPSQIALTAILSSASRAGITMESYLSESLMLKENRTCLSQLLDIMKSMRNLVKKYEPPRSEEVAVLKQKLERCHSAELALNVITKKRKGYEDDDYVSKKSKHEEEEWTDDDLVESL

SMILES	IC50 [1]	IC50 (CDK4-cyclin D1)	IC50 (CDK2-cycline E)	IC50 (CDK7/cyclin H)	IC50 (CDK2-cyclin A)	IC50 (Aurora A kinase)	IC50 (GSK3b)	IC50 (CDK1-cyclin B)	IC50 (CDK9/cyclin T1)
CCNc1nc(C)c(-c2ccnc(Nc3cccc(CNS(C)(=O)=O)c3)n2)s1 [Compound 5, N-{3-[4-(2-Ethylamino-4-methyl-thiazol-5-yl)-pyrimidin-2-ylamino]-benzyl}-methanesulfonamide]	50.1 nM	158 nM	158 nM	251 nM	200 nM	31.6 nM	200 nM	1260 nM	12.6 nM
Cc1nc(C)c(-c2ccnc(Nc3cccc(N4CCNCC4)c3)n2)s1 [Compound 8, [4-(2,4-Dimethyl-thiazol-5-yl)-pyrimidin-2-yl]-(3-piperazin-1-yl-phenyl)-amine]	50.1 nM	2510 nM	2000 nM	2000 nM	5010 nM	39800 nM	12600 nM	5010 nM	501 nM
Cc1nc(N)sc1-c1ccnc(Nc2cccc(CNS(=O)(=O)C(F)(F)F)c2)n1 [Compound 12, N-{3-[4-(2-Amino-4-methyl-thiazol-5-yl)-pyrimidin-2-ylamino]-benzyl}-C,C,C-trifluoro-methanesulfonamide]	794 nM	631 nM	63.1 nM	200 nM	501 nM	251 nM	2000 nM	631 nM	100 nM
CC(=O)NCc1ccc(Nc2nccc(-c3sc(C)nc3C)n2)cc1 [Compound 15, N-{4-[4-(2,4-Dimethyl-thiazol-5-yl)-pyrimidin-2-ylamino]-benzyl}-acetamide]	501 nM	631 nM	200 nM	1580 nM	1000 nM	39.8 nM	1000 nM	501 nM	794 nM
CC(=O)NCc1ccc(Nc2nccc(-c3sc(N)nc3C)n2)cc1 [Compound 16, N-{4-[4-(2-Amino-4-methyl-thiazol-5-yl)-pyrimidin-2-ylamino]-benzyl}-acetamide]	158 nM	501 nM	158 nM	2000 nM	1260 nM	79.4 nM	1000 nM	1000 nM	251 nM
CCNc1nc(C)c(-c2ccnc(Nc3ccc(S(C)(=O)=O)cc3)n2)s1 [Compound 17, [4-(2-Ethylamino-4-methyl-thiazol-5-yl)-pyrimidin-2-yl]-(4-methanesulfonyl-phenyl)-amine]	251 nM	1580 nM	50.1 nM	2510 nM	39.8 nM	39.8 nM	2000 nM	1000 nM	200 nM
CNc1nc(C)c(-c2ccnc(Nc3cccc(S(=O)(=O)NC)c3)n2)s1 [Compound 21, N-Methyl-3-[4-(4-methyl-2-methylamino-thiazol-5-yl)-pyrimidin-2-ylamino]-benzenesulfonamide]	158 nM	39.8 nM	63.1 nM	251 nM	794 nM	79.4 nM	251 nM	1000 nM	12.6 nM
CNS(=O)(=O)c1cccc(Nc2nccc(-c3sc(N)nc3C)n2)c1 [Compound 26, 3-[4-(2-Amino-4-methyl-thiazol-5-yl)-pyrimidin-2-ylamino]-N-methyl-benzenesulfonamide]	1000 nM	2510 nM	251 nM	794 nM	1000 nM	79.4 nM	316 nM	1260 nM	126 nM
CCNS(=O)(=O)c1cccc(Nc2nccc(-c3sc(N)nc3C)n2)c1 [Compound 30, 3-[4-(2-Amino-4-methyl-thiazol-5-yl)-pyrimidin-2-ylamino]-N-ethyl-benzenesulfonamide]	200 nM	794 nM	100 nM	398 nM	1000 nM	15.8 nM	316 nM	2000 nM	20 nM

Continued, values first:

IC50 [1]	IC50 (CDK4-cyclin D1)	IC50 (CDK2-cycline E)	IC50 (CDK7/cyclin H)	IC50 (CDK2-cyclin A)	IC50 (Aurora A kinase)	IC50 (GSK3b)	IC50 (CDK1-cyclin B)	IC50 (CDK9/cyclin T1)	SMILES
63.1 nM	20 nM	3.98 nM	79.4 nM	6.31 nM	63.1 nM	631 nM	31.6 nM	10 nM	CCNc1nc(C)c(-c2ccnc(Nc3ccc(S(N)(=O)=O)cc3)n2)s1 [Compound 35, 4-[4-(2-Ethylamino-4-methyl-thiazol-5-yl)-pyrimidin-2-ylamino]-benzenesulfonamide]
200 nM	158 nM	398 nM	158 nM	2000 nM	158 nM	501 nM	2000 nM	100 nM	CCNc1nc(C)c(-c2ccnc(Nc3cccc(S(=O)(=O)NCCOC)c3)n2)s1 [Compound 53, 3-[4-(2-Ethylamino-4-methyl-thiazol-5-yl)-pyrimidin-2-ylamino]-N-(2-methoxy-ethyl)-benzenesulfonamide]
200 nM	1580 nM	10 nM	2000 nM	20 nM	63.1 nM	1260 nM	20 nM	200 nM	Cc1nc(N)sc1-c1ccnc(Nc2ccc(S(=O)(=O)NCCO)cc2)n1 [Compound 68, 4-[4-(2-Amino-4-methyl-thiazol-5-yl)-pyrimidin-2-ylamino]-N-(2-hydroxy-ethyl)-benzenesulfonamide]
158 nM	126 nM	126 nM	398 nM	1000 nM	100 nM	316 nM	1000 nM	25.1 nM	Cc1nc(N)sc1-c1ccnc(Nc2cccc(S(=O)(=O)NCCO)c2)n1 [Compound 77, 3-[4-(2-Amino-4-methyl-thiazol-5-yl)-pyrimidin-2-ylamino]-N-(2-hydroxy-ethyl)-benzenesulfonamide]
